Measured values published in ChEMBL document CHEMBL3046897, “Synthesis of 3-{4-[4-dimethylamino-6-(4-methyl-2-oxo-2H-chromen-7-yloxy)-[1,3,5]triazin-2-ylamino]-phenyl}-2-phenyl-5-(4-pyridin-2-yl-piperazin-1-ylmethyl)-thiazolidin-4-one and their biological evaluation” (2012).
In brackets after ≈: the same amount, converted by molar mass.

How the values were obtained:
Format in all cases: functional
Proteus vulgaris [1] = experiment: Antibacterial activity against Proteus vulgaris at 100 ug/disk after 24 hr by paper disk diffusion method; conditions: read-out: IZ
Aspergillus fumigatus [2] = experiment: Antifungal activity against Aspergillus fumigatus at 100 ug/disc after 48 hr by paper disk diffusion method; conditions: read-out: IZ
Aspergillus clavatus [3] = experiment: Antifungal activity against Aspergillus clavatus after 48 hr by agar streak dilution method
Staphylococcus aureus [4] = experiment: Antibacterial activity against Staphylococcus aureus at 100 ug/disc after 24 hr by paper disk diffusion method; conditions: read-out: IZ
Staphylococcus aureus [5] = experiment: Antibacterial activity against Staphylococcus aureus after 24 hr by agar streak dilution method
Bacillus subtilis [6] = experiment: Antibacterial activity against Bacillus subtilis at 100 ug/disk after 24 hr by paper disk diffusion method; conditions: read-out: IZ
Shigella flexneri [7] = experiment: Antibacterial activity against Shigella flexneri at 100 ug/disc after 24 hr by paper disk diffusion method; conditions: read-out: IZ
Shigella flexneri [8] = experiment: Antibacterial activity against Shigella flexneri after 24 hr by agar streak dilution method
Candida albicans [9] = experiment: Antifungal activity against Candida albicans at 100 ug/disk after 48 hr by paper disk diffusion method; conditions: read-out: IZ
Pseudomonas aeruginosa [10] = experiment: Antibacterial activity against Pseudomonas aeruginosa after 24 hr by agar streak dilution method
Aspergillus fumigatus [11] = experiment: Antifungal activity against Aspergillus fumigatus after 48 hr by agar streak dilution method
Pseudomonas aeruginosa [12] = experiment: Antibacterial activity against Pseudomonas aeruginosa at 100 ug/disk after 24 hr by paper disk diffusion method; conditions: read-out: IZ
Bacillus subtilis [13] = experiment: Antibacterial activity against Bacillus subtilis after 24 hr by agar streak dilution method
Aspergillus niger [14] = experiment: Antifungal activity against Aspergillus niger after 48 hr by agar streak dilution method
Candida albicans [15] = experiment: Antifungal activity against Candida albicans after 48 hr by agar streak dilution method
Klebsiella pneumoniae [16] = experiment: Antibacterial activity against Klebsiella pneumoniae after 24 hr by agar streak dilution method
Escherichia coli [17] = experiment: Antibacterial activity against Escherichia coli after 24 hr by agar streak dilution method
Aspergillus clavatus [18] = experiment: Antifungal activity against Aspergillus clavatus at 100 ug/disc after 48 hr by paper disk diffusion method; conditions: read-out: IZ
Escherichia coli [19] = experiment: Antibacterial activity against Escherichia coli at 100 ug/disk after 24 hr by paper disk diffusion method; conditions: read-out: IZ
Aspergillus niger [20] = experiment: Antifungal activity against Aspergillus niger at 100 ug/disk after 48 hr by paper disk diffusion method; conditions: read-out: IZ
Salmonella typhi [21] = experiment: Antibacterial activity against Salmonella enterica subsp. enterica serovar Typhi after 24 hr by agar streak dilution method
Salmonella typhi [22] = experiment: Antibacterial activity against Salmonella enterica subsp. enterica serovar Typhi at 100 ug/disk after 24 hr by paper disk diffusion method; conditions: read-out: IZ
Proteus vulgaris [23] = experiment: Antibacterial activity against Proteus vulgaris after 24 hr by agar streak dilution method
Klebsiella pneumoniae [24] = experiment: Antibacterial activity against Klebsiella pneumoniae at 100 ug/disk after 24 hr by paper disk diffusion method; conditions: read-out: IZ

Structure (SMILES)	zone of inhibition at 100 µg/disc (Proteus vulgaris [1]) [mm]	zone of inhibition at 100 µg/disc (Aspergillus fumigatus [2]) [mm]	MIC (Aspergillus clavatus [3]) [µg/mL]	zone of inhibition at 100 µg/disc (Staphylococcus aureus [4]) [mm]	MIC (Staphylococcus aureus [5]) [µg/mL]	zone of inhibition at 100 µg/disc (Bacillus subtilis [6]) [mm]	zone of inhibition at 100 µg/disc (Shigella flexneri [7]) [mm]	MIC (Shigella flexneri [8]) [µg/mL]	zone of inhibition at 100 µg/disc (Candida albicans [9]) [mm]	MIC (Pseudomonas aeruginosa [10]) [µg/mL]	MIC (Aspergillus fumigatus [11]) [µg/mL]	zone of inhibition at 100 µg/disc (Pseudomonas aeruginosa [12]) [mm]	MIC (Bacillus subtilis [13]) [µg/mL]	MIC (Aspergillus niger [14]) [µg/mL]	MIC (Candida albicans [15]) [µg/mL]	MIC (Klebsiella pneumoniae [16]) [µg/mL]	MIC (Escherichia coli [17]) [µg/mL]	zone of inhibition at 100 µg/disc (Aspergillus clavatus [18]) [mm]	zone of inhibition at 100 µg/disc (Escherichia coli [19]) [mm]	zone of inhibition at 100 µg/disc (Aspergillus niger [20]) [mm]	further results
Cc1cc(=O)oc2cc(Oc3nc(Nc4ccc(/N=C/c5ccc(O)cc5)cc4)nc(N(C)C)n3)ccc12	19	18	100 (≈ 197 µM)	20	25 (≈ 49.2 µM)	18	17	100 (≈ 197 µM)	16	50 (≈ 98.3 µM)	50 (≈ 98.3 µM)	18	50 (≈ 98.3 µM)	50 (≈ 98.3 µM)	100 (≈ 197 µM)	100 (≈ 197 µM)	25 (≈ 49.2 µM)	14	20	20	MIC (Salmonella typhi [21]): 50 µg/mL (≈ 98.3 µM); zone of inhibition at 100 µg/disc (Salmonella typhi [22]): 19 mm; MIC (Proteus vulgaris [23]): 50 µg/mL (≈ 98.3 µM); zone of inhibition at 100 µg/disc (Klebsiella pneumoniae [24]): 11 mm
Cc1cc(=O)oc2cc(Oc3nc(Nc4ccc(N5C(=O)CSC5c5ccc(Cl)c(Cl)c5)cc4)nc(N(C)C)n3)ccc12 (stereo not given)	17	15	50 (≈ 78.7 µM)	16	100 (≈ 157 µM)	18	18	50 (≈ 78.7 µM)	13	50 (≈ 78.7 µM)	100 (≈ 157 µM)	19	50 (≈ 78.7 µM)	100 (≈ 157 µM)	100 (≈ 157 µM)	100 (≈ 157 µM)	100 (≈ 157 µM)	18	14	12	MIC (Salmonella typhi [21]): 50 µg/mL (≈ 78.7 µM); zone of inhibition at 100 µg/disc (Salmonella typhi [22]): 18 mm; MIC (Proteus vulgaris [23]): 100 µg/mL (≈ 157 µM); zone of inhibition at 100 µg/disc (Klebsiella pneumoniae [24]): 15 mm
Cc1cc(=O)oc2cc(Oc3nc(Nc4ccc(N5C(=O)C(CN6CCN(c7ccccn7)CC6)SC5c5cccc(F)c5)cc4)nc(N(C)C)n3)ccc12 (stereo not given)	21	19	12.5 (≈ 16.5 µM)	19	25 (≈ 32.9 µM)	21	25	12.5 (≈ 16.5 µM)	21	25 (≈ 32.9 µM)	25 (≈ 32.9 µM)	21	12.5 (≈ 16.5 µM)	12.5 (≈ 16.5 µM)	12.5 (≈ 16.5 µM)	50 (≈ 65.8 µM)	6.25 (≈ 8.23 µM)	25	28	23	MIC (Salmonella typhi [21]): 25 µg/mL (≈ 32.9 µM); zone of inhibition at 100 µg/disc (Salmonella typhi [22]): 23 mm; MIC (Proteus vulgaris [23]): 50 µg/mL (≈ 65.8 µM); zone of inhibition at 100 µg/disc (Klebsiella pneumoniae [24]): 20 mm
Cc1cc(=O)oc2cc(Oc3nc(Nc4ccc(N5C(=O)C(CN6CCN(c7ccccn7)CC6)SC5c5ccc(Cl)c(Cl)c5)cc4)nc(N(C)C)n3)ccc12 (stereo not given)	20	18	50 (≈ 61.7 µM)	19	50 (≈ 61.7 µM)	21	19	50 (≈ 61.7 µM)	17	25 (≈ 30.8 µM)	50 (≈ 61.7 µM)	21	25 (≈ 30.8 µM)	100 (≈ 123 µM)	100 (≈ 123 µM)	50 (≈ 61.7 µM)	50 (≈ 61.7 µM)	20	18	16	MIC (Salmonella typhi [21]): 50 µg/mL (≈ 61.7 µM); zone of inhibition at 100 µg/disc (Salmonella typhi [22]): 20 mm; MIC (Proteus vulgaris [23]): 25 µg/mL (≈ 30.8 µM); zone of inhibition at 100 µg/disc (Klebsiella pneumoniae [24]): 19 mm
Cc1ccc(C2SCC(=O)N2c2ccc(Nc3nc(Oc4ccc5c(C)cc(=O)oc5c4)nc(N(C)C)n3)cc2)cc1 (stereo not given)	14	18	50 (≈ 86.1 µM)	18	50 (≈ 86.1 µM)	19	20	25 (≈ 43.1 µM)	20	50 (≈ 86.1 µM)	50 (≈ 86.1 µM)	20	25 (≈ 43.1 µM)	25 (≈ 43.1 µM)	50 (≈ 86.1 µM)	100 (≈ 172 µM)	100 (≈ 172 µM)	19	13	20	MIC (Salmonella typhi [21]): 25 µg/mL (≈ 43.1 µM); zone of inhibition at 100 µg/disc (Salmonella typhi [22]): 19 mm; MIC (Proteus vulgaris [23]): 100 µg/mL (≈ 172 µM); zone of inhibition at 100 µg/disc (Klebsiella pneumoniae [24]): 15 mm
